Assay [1] concerns Human umbilical vein endothelial cells (HUVEC). As to the kind of experiment: SA β-galactosidase staining of HUVEC plated on glycated collagen (premature senescence). Format: cell-based. The settings on record: for reduction/reversal of premature senescence across dilutions of glycated collagen: HUVEC on glycated collagen at different dilutions/concentrations of glycated matrix. The method, then:
Detection of SA-β-galactosidase was carried out utilizing the histochemical staining method of Dimitri et al, Proc. Natl. Acad. Sci. USA 92, 9363-9367 as modified by Van der Loo, B., et al, Exp. Cell Res. 241, 309-315 (1998). SA-β-galactosidase is a known senescence marker. […] This phenomenon occurred in 12 week and 21 week-old diabetic rats, but was undetectable in age-matched Zucker lean rats (0/24 branches examined).
Human umbilical vein endothelial cells (HUVEC) after four passages were plated on glycated collagen with the addition of 0.1 mM hydroxy-L-arginine vis-a-vis the same concentration of L-arginine. Application was made on day 1, 2 hours after plating. The extent of SA β-galactosidase staining was evaluated on days 3 and 5 of culture on a glycated or native matrix. In addition, to study the reversibility process, HUVEC were plated on glycated collagen for three days (time sufficient to induce premature senescence), and hydroxy-L-arginine was added every 12 hours, starting on day 3, and the cells were examined on day 5.

The subject of assay [2] is patients of Examples I, II and III. Briefly: Example IV: other hydroxyguanidines substituted for hydroxy-L-arginine in Examples I, II and III. Format: in vivo, human. The settings on record: same dosage as in Examples I.
The subject of assay [3] is patient with end stage renal disease. Briefly: Example I: patient with end stage renal disease on chronic hemodialysis treated with hydroxy-L-arginine. Format: in vivo, human. The following applies: 1-20 mg/kg thrice/day, 6 months later. The text has this:
(In some cases, renal biopsy will be performed, which will directly disclose the deposition of AGE in the renal parenchyma and increased proportion of SA-beta-galactosidase-stained endothelial cells). […] In addition, the patient has their arterio-veinous fistula revised 3 times due to clotting and stenosis. The patient is also complaining of a non-healing foot ulcer and intermittent claudication, both signs of peripheral vascular disease.

Assay [4] deals with patient with type I (alternatively type 2) diabetes mellitus. Briefly: Example II: poorly controlled diabetes mellitus patient treated with hydroxy-L-arginine. The following applies: 1-20 mg/kg thrice/day, 6 months later. The class given is in vivo, human. The method, then: A patient with type I (alternatively, a patient with type 2) diabetes mellitus, past medical history of myocardial infarction, peripheral vascular disease, hypertension, proteinuria and non-healing foot ulcer, is receiving insulin, but patient is poorly compliant. Patient's fasting blood glucose level is 200 mg/dl. Additional laboratory findings include elevated Hgb Alc level (8.5%) as well as one of the following levels of AGE: elevated level of pentosidine (2.3 pmol/mg) or elevated level of Amadori serum albumin (41 U/ml). (In some cases, renal biopsy will be performed, which will directly disclose the deposition of AGE in the renal parenchyma and increased proportion of SA-beta-galactosidase-stained endothelial cells).

In assay [5] the test system is patient diagnosed with Alzheimer's disease. Briefly: Example III: patient with Alzheimer's disease treated with hydroxy-L-arginine. The class given is in vivo, human. The following applies: 1-20 mg/kg thrice/day alone or with antioxidant agents and vitamins; two years later. The protocol:
A person with no known medical conditions has been experiencing a sustained loss of short-term memory for the past three years. Their CBC, electrolytes and other plasma parameters of metabolic profile are within normal range. There is no vitamin deficiency, no abnormalities in liver function tests, and no previous history of cerebro-vascular accidents. […] Based on these findings the patient is diagnosed with Alzheimer's disease. Therapy with hydroxy-L-arginine is initiated at doses 1-20 mg/kg thrice/day alone or in combination with antioxidant agents and vitamins (e.g., ascorbate, alpha-tocopherol, vitamin B6, vitamin B12, folate (folic acid), carotenoids, coenzyme Q10, phytoestrogens (including isoflavonoids), selenium, butylated hydroxytoluene (BHT), butylated hydroxyanisole (BHA) and n-3 polyunsaturated fatty acids (PUFA)).

Assay [6] relates to saphenous vein endothelial cells seeded on artificial valve. Briefly: Example V: artificial heart valve seeded with endothelial cells cultured with hydroxy-L-arginine, implanted. Format: in vivo, human. The following applies: cells cultured with 10-100 μg/ml at 35° C. for 2-3 weeks. The method, then: A person with a defective heart valve is being prepared for a surgical replacement of the valve with a prosthetic device. A saphenous vein is obtained to harvest endothelial cells for expansion and seeding on the surface of a artificial valve. Expanded endothelial cells are cultured in the medium containing hydroxy-L-arginine, 10-100 μg/ml at 35° C. for 2-3 weeks and cells are seeded on the valve in the continuous presence of the same concentration of hydroxy-L-arginine. Thus prepared, the artificial valve is implanted.

Assay [7] concerns saphenous vein endothelial cells seeded on artificial vascular graft. As to the kind of experiment: Example VI: artificial vascular graft seeded with endothelial cells cultured with hydroxy-L-arginine, implanted. Format: in vivo, human. The following applies: cells cultured with 10-100 μg/ml at 35° C. for 2-3 weeks. The protocol: A person with peripheral vascular disease is undergoing an elective femoral-to-popliteal bypass surgery utilizing an artificial vascular graft. A saphenous vein is obtained to harvest endothelial cells for expansion and seed on the surface of a graft. Expanded endothelial cells are cultured in the medium containing hydroxy-L-arginine, 10-100 μg/ml at 35° C. for 2-3 weeks, and cells are seeded on the graft in the continuous presence of the same concentration of hydroxy-L-arginine. Thus prepared, the vascular graft is implanted.

Regarding `N=C(N)NCCC[C@H](N)C(=O)O` [L-arginine, reference compound], the “reduction/reversal of premature senescence across dilutions of glycated collagen” value in assay [1] is “failed to reverse premature senescence at higher concentrations of glycated matrix”.

In the case of `N=C(N)NO` [hydroxyguanidine, Hydroxyguanidine], in assay [2], the “results when substituted for hydroxy-L-arginine at the same dosage” value was “Positive results similar to those obtained in Examples I, II and III”.

Take `N=C(NO)NCCC[C@H](N)C(=O)O` [hydroxy-L-arginine, N^ω-hydroxy-L-arginine]: the “development of premature senescence (SA β-galactosidase staining)” value in assay [1] (HUVEC grown on glycated collagen, 0.1 mM added to culture medium on day 1, 2 hours after plating, evaluated days 3 and 5) was “completely abolished the development of premature senescence”. In assay [1], the “reduction/reversal of premature senescence across dilutions of glycated collagen” value is recorded as “able to reduce premature senescence at all dilutions of glycated collagen”. The coronary symptoms entry in assay [3] and in assay [4] was “significant subjective improvement” each time. Also, the foot ulcer result in assay [3] and in assay [4] was “healing of foot ulcer” in each case. For the same compound, the “pentosidine level after treatment” value in assay [3] (baseline 2.5 pmol/mg) and in assay [4] (baseline 2.3 pmol/mg) was 1.7 pmol/mg each time. Besides, the “Amadori serum albumin level after treatment” value in assay [3] (baseline 40 U/ml) and in assay [4] (baseline 41 U/ml) was 30 U/ml in each case. Also, the blood pressure entry in assay [3] (baseline 175/105 mmHg) and in assay [4] was “normalization of blood pressure” each time. The coronary angiogram entry in assay [4] is given as “either no further worsening of stenotic lesions or some degree of improvement”. Moreover, the “symptoms related to the memory loss” value in assay [5] is “no deterioration and a partial improvement”. For the same compound, the “thrombotic and atheroembolic complications” value in assay [6] was “less thrombotic and atheroembolic complications”; in assay [7], “less thrombotic and atheroembolic complications”.
